The values below come from US7772246B2 (Pfizer Inc., priority 2007, dated 2010).

The target in assay [1] is T1, b-Raf (Homo sapiens, UniProt P15056).
T1 construct: Full-length wild type b-Raf is expressed in recombinant form and purified from bacterial or insect cells; made in house; host or cells: bacterial or insect cells
The assay can be described thus: Raf biochemical assay (in vitro kinase assay, 32-P transfer from ATP to Mek1). The note with it: full-length wild type b-Raf, Mek1 substrate; for Ki: 25 μM ATP; for inhibition at 1 µM: @ 1 μM compound, read-out: b-Raf % inhib @ 1 μM. Here is the method: Compounds of the present invention were evaluated for potency against b-Raf using an in vitro kinase assay. Raf kinase activity is measured in vitro by determining transfer of radiolabeled 32-P phosphate from ATP to the specific Raf substrate Mek1. Full-length wild type b-Raf is expressed in recombinant form and purified from bacterial or insect cells. Recombinant Mek1 is purified from E. coli bacterial cells. In one assay format (designated G1), the full-length wild type Mek1 is used as the b-Raf substrate. In a second assay format (designated G2), the full-length K97R Mek1 mutant is used as the b-Raf substrate.
In vitro kinase assays are performed in solution containing the following; 50 mM Hepes (pH 7.4), 5 nM b-Raf, 0.8 μM Mek1, 10 mM MgCl2, 25 μM ATP, 0.002% (v/v) Tween-20, 5 μg/mL leupeptin, 1.2 mM DTT, 2% (v/v) DMSO, 0.2-1.0 μCi [γ-^32P]ATP per well.
The assays are performed in wells of a 96 well polypropylene round bottom plate, each well containing 43.5 μL assay mix and 1.5 μL inhibitor compound or DMSO vehicle. 15 μL of b-Raf mix is added and the plate is shaken on a plate shaker and preincubated for 10 minutes at ambient temperature. The reaction is started by addition of 15 μL ATP mix and shaking. The reaction is terminated after 40 minutes by addition of 25 μL 0.5 M EDTA (pH 7.4).
60 μL of the stopped reaction is transferred to a well of a 96-well nylon 66 Biodyne A membrane Silent Screen filter plate (Nalge/Nunc: 256081). The wells are filtered and washed five times with 0.85% phosphoric acid. The filter is placed in a tray with about 50 mL 0.85% phosphoric acid and gently rotated for 10 minutes on an orbital shaker. The procedure is repeated once with fresh 0.85% phosphoric acid. Five samples of 0.5 μL of ATP mix are also spotted onto filter paper for calculation of specific activity. The filters are air dried for one hour and sandwiched between cellophane wrap on an Amersham Biosciences Storage Phosphor Screen and developed at least over night. The image is read using a Molecular Dynamics Storm 840 phosphoimager. Volumes of spots are calculated using ImageQuant5.1.
Raf kinase activity is calculated from the specific activity of [32-P] ATP, 32-P incorporation into Mek1, and the concentration of b-Raf.

Assay [2] addresses T2, b-Raf (Homo sapiens, UniProt P15056, V600E).
T2 construct: endogenous in cells; host or cells: A2058 human melanoma cells
The assay can be described thus: Raf cellular assay (phospho-Mek1/2 ELISA in A2058 cells). The format is cell-based. The note with it: Table 2; human melanoma A2058 cells (b-Raf mutation), Mek1/2 Ser217/221 phosphorylation, 1 hour incubation; read-out: pMEK IC50. The method in brief: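 A2058 melanoma cells (B-Raf mutant), seeded overnight in 10% FBS DMEM, were exposed to compounds (11-point 1:3 series, duplicate) for 1 h at 37 °C. Lysates were captured on anti-Mek1-coated plates and Mek1/2 Ser217/221 phosphorylation was read by anti-phospho-Mek1/2 ELISA, HRP/TMB, 450 nm.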
(In general: An ELISA detects its analyte on a solid surface through an enzyme-linked reagent.)

T1 sequence (P15056 whole entry): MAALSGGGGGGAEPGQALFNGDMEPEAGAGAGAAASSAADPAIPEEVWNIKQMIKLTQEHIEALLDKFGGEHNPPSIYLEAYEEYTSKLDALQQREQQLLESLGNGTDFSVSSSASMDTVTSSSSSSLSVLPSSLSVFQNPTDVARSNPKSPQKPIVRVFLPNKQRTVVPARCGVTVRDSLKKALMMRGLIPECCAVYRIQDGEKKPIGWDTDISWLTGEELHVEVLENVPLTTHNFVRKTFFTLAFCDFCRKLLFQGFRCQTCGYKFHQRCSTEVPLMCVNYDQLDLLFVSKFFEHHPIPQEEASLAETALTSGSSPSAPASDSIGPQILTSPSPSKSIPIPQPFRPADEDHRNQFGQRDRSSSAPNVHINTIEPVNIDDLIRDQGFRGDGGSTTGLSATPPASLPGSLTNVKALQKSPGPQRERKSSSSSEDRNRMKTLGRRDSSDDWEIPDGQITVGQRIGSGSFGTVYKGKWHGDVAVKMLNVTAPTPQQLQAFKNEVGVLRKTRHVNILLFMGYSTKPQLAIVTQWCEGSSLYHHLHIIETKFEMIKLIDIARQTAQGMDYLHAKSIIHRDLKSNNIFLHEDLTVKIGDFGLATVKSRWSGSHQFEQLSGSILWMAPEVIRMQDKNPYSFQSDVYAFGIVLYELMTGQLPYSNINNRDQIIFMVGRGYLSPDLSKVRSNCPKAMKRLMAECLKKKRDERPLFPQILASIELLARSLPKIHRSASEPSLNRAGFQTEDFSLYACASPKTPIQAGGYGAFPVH
T2 sequence (P15056 whole entry V600E): as the sequence (P15056 whole entry) above, with V600E counted along it

The compound `Cc1c[nH]c2ncc(-c3nn(C(C)C)cc3-c3ccnc(NC[C@H](C)O)n3)cc12` [Example B-5, (2S)-1-(4-(1-isopropyl-3-(3-methyl-1H-pyrrolo[2,3-b]pyridin-5-yl)-1H-pyrazol-4-yl)pyrimidin-2-ylamino)propan-2-ol] came in with a Ki on b-Raf [1] of 0.2 nM. For the same compound, the 50% inhibitory concentration (IC50) on b-Raf [2] worked out at 7 nM.
`Cc1[nH]c2ncc(-c3nn(C(C)C)cc3-c3ccnc(NC[C@H](C)O)n3)cc2c1C` [Example B-6, (2S)-1-(4-(3-(2,3-dimethyl-1H-pyrrolo[2,3-b]pyridin-5-yl)-1-isopropyl-1H-pyrazol-4-yl)pyrimidin-2-ylamino)propan-2-ol] showed an inhibition constant Ki at b-Raf [1] of 1.5 nM. In addition, the half-maximal inhibitory concentration (IC50) on b-Raf [2] worked out at 44 nM.
The like results for `Cc1cc2cc(-c3nn(C(C)C)cc3-c3ccnc(NC[C@H](C)O)n3)cnc2[nH]1` [Example B-7, (2S)-1-(4-(1-isopropyl-3-(2-methyl-1H-pyrrolo[2,3-b]pyridin-5-yl)-1H-pyrazol-4-yl)pyrimidin-2-ylamino)propan-2-ol] were, in that order, 10.3 nM and 4010 nM.
For the compound `CC(C)n1cc(-c2ccnc(NCCn3ccccc3=O)n2)c(-c2cnc3[nH]ccc3c2)n1` [Example D-8, 1-[2-({4-[1-isopropyl-3-(1H-pyrrolo[2,3-b]pyridin-5-yl)-1H-pyrazol-4-yl]pyrimidin-2-yl}amino)ethyl]pyridin-2(1H)-one], at b-Raf [1], the inhibition at 1 µM amounted to 100% and the Ki was 0.7 nM. Besides, the IC50 on b-Raf [2] is 542 nM.
`CCn1cc(CNc2nccc(-c3cn(C(C)C)nc3-c3cnc4[nH]ccc4c3)n2)cn1` [Example D-10, N-[(1-ethyl-1H-pyrazol-4-yl)methyl]-4-[1-isopropyl-3-(1H-pyrrolo[2,3-b]pyridin-5-yl)-1H-pyrazol-4-yl]pyrimidin-2-amine]: at b-Raf [1], the inhibition at 1 µM was found to be 100% and the Ki came out at 2 nM. For the same compound, the half-maximal inhibitory concentration (IC50) at b-Raf [2] was 923 nM.
On to `CC(C)n1cc(-c2ccnc(NC[C@H](C)O)n2)c(-c2cnc3ccn(C)c3n2)n1` [Example B-10], for which, at b-Raf [1], affinity was put at a Ki of 5 nM. Further, the IC50 at b-Raf [2] was 5960 nM.
With `Cc1cc(-c2nn(C(C)C)cc2-c2ccnc(NC[C@H](C)O)n2)cnc1N` [Example B-3, (2S)-1-(4-(3-(6-amino-5-methylpyridin-3-yl)-1-isopropyl-1H-pyrazol-4-yl)pyrimidin-2-ylamino)propan-2-ol], at b-Raf [1], the inhibition at 1 µM came out at 98% and the inhibition constant Ki worked out at 11 nM. Also, the IC50 on b-Raf [2] was found to be 815 nM.
On b-Raf [1], `CC(C)n1cc(-c2ccnc(NC[C@H](C)O)n2)c(-c2cnc3[nH]ncc3c2)n1` [Example D-1, (2S)-1-(4-(1-isopropyl-3-(1H-pyrazolo[3,4-b]pyridin-5-yl)-1H-pyrazol-4-yl)pyrimidin-2-ylamino)propan-2-ol] gave an inhibition constant (Ki) of 3.3 nM. The IC50 at b-Raf [2] worked out at 1980 nM.
For `Cc1nc(CNc2nccc(-c3cn(C(C)C)nc3-c3cnc4[nH]ccc4c3)n2)c(C)o1` [Example D-11, N-[(2,5-dimethyl-1,3-oxazol-4-yl)methyl]-4-[1-isopropyl-3-(1H-pyrrolo[2,3-b]pyridin-5-yl)-1H-pyrazol-4-yl]pyrimidin-2-amine], at b-Raf [1], the inhibition at 1 µM was determined as 100% and the Ki stood at 0.8 nM. Besides, the IC50 at b-Raf [2] amounted to 1320 nM.
In turn, `Cc1nc2ncc(-c3nn(C(C)C)cc3-c3ccnc(NC[C@H](C)O)n3)cn2c1C` [Example B-9, (2S)-1-(4-(3-(2,3-dimethylimidazo[1,2-a]pyrimidin-6-yl)-1-isopropyl-1H-pyrazol-4-yl)pyrimidin-2-ylamino)propan-2-ol] registered an inhibitory constant (Ki) at b-Raf [1] of 2 nM. The IC50 at b-Raf [2] came out at 9260 nM.
With `C[C@H](O)CNc1nccc(-c2cn(CC(F)F)nc2-c2cnc3[nH]ccc3c2)n1` [Example B-14, (2S)-1-(4-(1-(2,2-difluoroethyl)-3-(1H-pyrrolo[2,3-b]pyridin-5-yl)-1H-pyrazol-4-yl)pyrimidin-2-ylamino)propan-2-ol], on b-Raf [1], the inhibition at 1 µM came out at 100% and the affinity, expressed as Ki, was 0.7 nM. On b-Raf [2], the IC50 came out at 510 nM.
The like results for `CC(CO)Nc1nccc(-c2cn(C(C)C)nc2-c2cnc3[nH]ccc3c2)n1` (stereo in doubt) [Example D-9, (2R)-2-({4-[1-isopropyl-3-(1H-pyrrolo[2,3-b]pyridin-5-yl)-1H-pyrazol-4-yl]pyrimidin-2-yl}amino)propan-1-ol] were, in that order, 100%, 1.6 nM and 918 nM.
In the case of `CC(C)n1cc(-c2ccnc(NC[C@H](C)O)n2)c(-c2cnc3[nH]ccc3c2)n1` [Example B-1, (2S)-1-(4-(1-isopropyl-3-(1H-pyrrolo[2,3-b]pyridin-5-yl)-1H-pyrazol-4-yl)pyrimidin-2-ylamino)propan-2-ol], on b-Raf [1], the inhibition at 1 µM worked out at 102% and the Ki stood at 0.5 nM. Besides, the IC50 at b-Raf [2] was 154 nM.
On to `C[C@H](O)CNc1nccc(-c2cn(CC3(C)COC3)nc2-c2cnc3[nH]cc(Cl)c3c2)n1` [Example E-4, (2S)-1-(4-(3-(3-chloro-1H-pyrrolo[2,3-b]pyridin-5-yl)-1-((3-methyloxetan-3-yl)methyl)-1H-pyrazol-4-yl)pyrimidin-2-ylamino)propan-2-ol], for which the inhibition constant (Ki) at b-Raf [1] was 1.9 nM. In addition, the IC50 on b-Raf [2] is 188 nM.
`Cc1n[nH]c2ncc(-c3nn(C(C)C)cc3-c3ccnc(NC[C@H](C)O)n3)cc12` [Example D-2, (2S)-1-(4-(1-isopropyl-3-(3-methyl-1H-pyrazolo[3,4-b]pyridin-5-yl)-1H-pyrazol-4-yl)pyrimidin-2-ylamino)propan-2-ol] yielded an inhibition constant Ki on b-Raf [1] of 0.3 nM. In addition, the IC50 at b-Raf [2] was 109 nM.
Compound `C[C@H](O)CNc1nccc(-c2cn(C)nc2-c2cnc3[nH]cc(Cl)c3c2)n1` [Example E-1, (2S)-1-(4-(3-(3-chloro-1H-pyrrolo[2,3-b]pyridin-5-yl)-1-methyl-1H-pyrazol-4-yl)pyrimidin-2-ylamino)propan-2-ol] returned a Ki at b-Raf [1] of 1.5 nM. Moreover, the IC50 at b-Raf [2] was 223 nM.
For `CC(C)n1cc(-c2ccnc(NC[C@H](C)O)n2)c(-c2cnc3c(c2)CCN3)n1` [Example B-12, (2S)-1-(4-(3-(2,3-dihydro-1H-pyrrolo[2,3-b]pyridin-5-yl)-1-isopropyl-1H-pyrazol-4-yl)pyrimidin-2-ylamino)propan-2-ol] the same measures were 1.6 nM and 450 nM.
`CC(C)n1cc(-c2ccnc(NCCn3cccn3)n2)c(-c2cnc3[nH]ccc3c2)n1` [Example D-4, 4-[1-isopropyl-3-(1H-pyrrolo[2,3-b]pyridin-5-yl)-1H-pyrazol-4-yl]-N-[2-(1H-pyrazol-1-yl)ethyl]pyrimidin-2-amine]: on b-Raf [1], the inhibition at 1 µM was 100% and the Ki was under 0.1 nM. Moreover, the IC50 on b-Raf [2] worked out at 149 nM.
Regarding `C[C@H](O)CNc1nccc(-c2cn(CC#N)nc2-c2cnc3[nH]ccc3c2)n1` [Example C-1, [4-[2-((S)-2-Hydroxy-propylamino)-pyrimidin-4-yl]-3-(1H-pyrrolo[2,3-b]pyridin-5-yl)-pyrazol-1-yl]-acetonitrile], on b-Raf [1], the affinity corresponds to a Ki of 3.9 nM. In addition, on b-Raf [2], the IC50 was 483 nM.
With `CC(C)n1cc(-c2ccnc(NCCO)n2)c(-c2cnc3[nH]ccc3c2)n1` [Example D-6, 2-({4-[1-isopropyl-3-(1H-pyrrolo[2,3-b]pyridin-5-yl)-1H-pyrazol-4-yl]pyrimidin-2-yl}amino)ethanol], on b-Raf [1], the inhibition at 1 µM is 101% and the affinity corresponds to a Ki of 1.36 nM. Besides, the IC50 at b-Raf [2] worked out at 369 nM.
On b-Raf [1], `C[C@H](O)CNc1nccc(-c2cn(CC3(C)COC3)nc2-c2cnc3[nH]ccc3c2)n1` [Example B-15, (2S)-1-(4-(1-((3-methyloxetan-3-yl)methyl)-3-(1H-pyrrolo[2,3-b]pyridin-5-yl)-1H-pyrazol-4-yl)pyrimidin-2-ylamino)propan-2-ol] came in with a Ki of 6.2 nM. For the same compound, the IC50 at b-Raf [2] was 3250 nM.

By Ki is commonly meant the dissociation constant of the complex between target and ligand, obtained from inhibition or displacement. A higher Ki goes with weaker binding. For orientation: IC50 means the point on the concentration scale where inhibition reaches its midpoint.
